Structures can show the parent of a compound that is named as a salt. Where two headings read alike, the source gives them in different places.
Target: SARS-CoV-2 3CLpro (Severe acute respiratory syndrome coronavirus 2, UniProt P0DTD1)
Assay: biochemical
Type: biochemical
Design: Replicate_1 / Replicate_2 / mean / mean (LOPAC_screen_w_protease): unit not given here
Conditions: for inhibition at 5 µM: 4 h; for mean (LOPAC screen with protease) / Replicate_1 (LOPAC screen with protease) / Replicate_2 (LOPAC screen with protease): primary screen at 5 µM
[1] = sheet LOPAC_screen_w_protease, LOPAC1280 primary screen with protease, 5 µM compound, mean of the two replicates
[2] = sheet LOPAC_screen_w_protease, LOPAC1280 primary screen with protease, 5 µM compound, replicate 1
[3] = sheet LOPAC_screen_w_protease, LOPAC1280 primary screen with protease, 5 µM compound, replicate 2
[4] = sheet LOPAC_screen_w_protease, primary screen of LOPAC1280 at 5 µM with protease, mean of the two replicates
[5] = sheet LOPAC_screen_w_protease, primary screen of LOPAC1280 at 5 µM with protease, replicate 1
[6] = sheet LOPAC_screen_w_protease, primary screen of LOPAC1280 at 5 µM with protease, replicate 2
[7] = sheet LOPAC_screen_w_protease, LOPAC1280 primary screen at 5 µM, with protease, mean of the two replicates
[8] = sheet LOPAC_screen_w_protease, LOPAC1280 primary screen at 5 µM, with protease, replicate 1
[9] = sheet LOPAC_screen_w_protease, LOPAC1280 primary screen at 5 µM, with protease, replicate 2
[10] = LOPAC1280 primary screen with protease, 5 µM compound, mean of two replicates
[11] = sheet LOPAC_screen_w_protease, primary screen with protease, 5 µM, mean of two replicates, read-out: mean
[12] = sheet LOPAC_screen_w_protease, primary screen with protease, 5 µM, replicate 1, read-out: Replicate_1
[13] = sheet LOPAC_screen_w_protease, primary screen with protease, 5 µM, replicate 2, read-out: Replicate_2
[14] = sheet LOPAC_screen_w_protease, LOPAC1280 primary screen at 5 µM, with protease, mean of the two replicates, read-out: mean
[15] = sheet LOPAC_screen_w_protease, LOPAC1280 primary screen at 5 µM, with protease, replicate 1, read-out: Replicate_1
[16] = sheet LOPAC_screen_w_protease, LOPAC1280 primary screen at 5 µM, with protease, replicate 2, read-out: Replicate_2
[17] = sheet LOPAC_screen_w_protease, mean of two replicates
[18] = sheet LOPAC_screen_w_protease, replicate 1
[19] = sheet LOPAC_screen_w_protease, replicate 2
[20] = sheet LOPAC_screen_w_protease, primary screen with protease, mean of two replicates
[21] = sheet LOPAC_screen_w_protease, primary screen with protease, replicate 1
[22] = sheet LOPAC_screen_w_protease, primary screen with protease, replicate 2
[23] = sheet LOPAC_screen_w_protease, primary screen of LOPAC1280 at 5 µM with protease, mean of the two replicates, read-out: mean
[24] = sheet LOPAC_screen_w_protease, primary screen of LOPAC1280 at 5 µM with protease, replicate 1, read-out: Replicate_1
[25] = sheet LOPAC_screen_w_protease, primary screen of LOPAC1280 at 5 µM with protease, replicate 2, read-out: Replicate_2
[26] = sheet LOPAC_screen_w_protease, primary screen with protease, 5 µM, mean of two replicates
[27] = sheet LOPAC_screen_w_protease, primary screen with protease, 5 µM, replicate 1
[28] = sheet LOPAC_screen_w_protease, primary screen with protease, 5 µM, replicate 2
[29] = sheet LOPAC_screen_w_protease, LOPAC1280 primary screen with protease, 5 µM compound, mean of the two replicates, read-out: mean
[30] = sheet LOPAC_screen_w_protease, LOPAC1280 primary screen with protease, 5 µM compound, replicate 1, read-out: Replicate_1
[31] = sheet LOPAC_screen_w_protease, LOPAC1280 primary screen with protease, 5 µM compound, replicate 2, read-out: Replicate_2
[32] = LOPAC1280 primary screen with protease, 5 µM compound, replicate 1
[33] = LOPAC1280 primary screen with protease, 5 µM compound, replicate 2
[34] = LOPAC1280 primary screen with protease, 5 µM compound, mean of the two replicates

S-Nitroso-N-acetylpenicillamine
mean [1]: 5.369
Replicate_1 [2]: 5.411
Replicate_2 [3]: 5.326

Cn1cnc2c(NC3CCCC3)ncnc21 [N6-Cyclopentyl-9-methyladenine]
mean [4]: 3.328
Replicate_1 [5]: 3.176
Replicate_2 [6]: 3.4795

Cl.O=C(O)C1CCCN(CCC=C(c2ccccc2)c2ccccc2)C1 (centres unmarked) [SKF 89976A hydrochloride]
mean [7]: 0.532
Replicate_1 [8]: 1.548
Replicate_2 [9]: -0.4841

CN(C)CCC=C1c2ccccc2COc2ccccc21 [Doxepin hydrochloride]
inhibition at 5 µM (LOPAC1280 primary screen with protease, 5 µM compound, replicate 1, read-out: Replicate_1 (LOPAC_screen_w_protease)): 1.2%
inhibition at 5 µM (LOPAC1280 primary screen with protease, 5 µM compound, replicate 2, read-out: Replicate_2 (LOPAC_screen_w_protease)): 1.88%
mean (LOPAC_screen_w_protease) [10]: 1.543

O=C(O)[C@@H]1CCN1 [L-azetidine-2-carboxylic acid]
inhibition at 5 µM [11]: -0.00926%
inhibition at 5 µM [12]: -0.0704%
inhibition at 5 µM [13]: 0.0519%

CN(C)CCC=C1c2ccccc2CCc2ccccc21 [Amitriptyline hydrochloride]
inhibition at 5 µM [14]: 0.72%
inhibition at 5 µM [15]: 0.391%
inhibition at 5 µM [16]: 1.05%

Br.Oc1cc2c(c(Cl)c1O)CCNCC2c1ccccc1 (racemic) [(±)-6-Chloro-PB hydrobromide]
mean (LOPAC screen with protease) [17]: 66.2827
Replicate_1 (LOPAC screen with protease) [18]: 64.3769
Replicate_2 (LOPAC screen with protease) [19]: 68.1884

COc1cccc(NC(=O)/C=C/c2ccc(Cl)cc2)c1 [SB-366791]
mean [20]: 2.336
Replicate_1 [21]: 3.003
Replicate_2 [22]: 1.669

Br.Br.NC(N)=NCCSSCCN=C(N)N [Guanidinoethyl disulfide dihydrobromide]
mean (LOPAC screen with protease) [17]: 36.2152
Replicate_1 (LOPAC screen with protease) [18]: 35.2116
Replicate_2 (LOPAC screen with protease) [19]: 37.2188

Cc1nc(N=Nc2cc(S(=O)(=O)[O-])c3cc([N+](=O)[O-])cc(S(=O)(=O)[O-])c3c2)c(COP(=O)([O-])[O-])c(C=O)c1O.[Na+].[Na+].[Na+].[Na+] [PPNDS tetrasodium]
mean [1]: 5.708
Replicate_1 [2]: 4.956
Replicate_2 [3]: 6.46

Cl.N[C@@H](CCl)C(=O)O [beta-Chloro-L-alanine hydrochloride]
mean [20]: 2.368
Replicate_1 [21]: 2.376
Replicate_2 [22]: 2.361

Cc1ncc(CNC(=O)N(CCCl)N=O)c(N)n1 [Nimustine hydrochloride]
inhibition at 5 µM [23]: 3.43%
inhibition at 5 µM [24]: 3.89%
inhibition at 5 µM [25]: 2.97%

CP(=O)(O)C1=CCNCC1 [TPMPA]
mean [26]: 0.264
Replicate_1 [27]: -0.09904
Replicate_2 [28]: 0.6269

C[C@H](Cc1ccc2c(c1)OC(C(=O)[O-])(C(=O)[O-])O2)NC[C@H](O)c1cccc(Cl)c1.[Na+].[Na+] [CL 316,243]
Replicate_1 (LOPAC_screen_w_protease): 0.6829
Replicate_2 (LOPAC_screen_w_protease): 2.815
mean (LOPAC_screen_w_protease): 1.749

COc1ccc(C(=O)NCc2cccnc2)cc1C(=O)NCc1cccnc1 [Picotamide]
inhibition at 5 µM [14]: 0.551%
inhibition at 5 µM [15]: 1.7%
inhibition at 5 µM [16]: -0.597%

CCN(CC)CC.Nc1ncnc2c1ncn2C1OC2COP(O)(=S)O[C@@H]2[C@@H]1O (some centres unmarked) [Rp-cAMPS triethylamine]
Replicate_1: 2.931
Replicate_2: 3.042
mean: 2.9867

CN(C)c1ccc(/C=C2\C(=O)Nc3ccccc32)cc1 [SU 4312]
mean [26]: 0.09243
Replicate_1 [27]: 0.4934
Replicate_2 [28]: -0.3085

O=c1[nH]c2cc(Cl)ccc2c(O)c1-c1cccc(Oc2ccccc2)c1 [L-701,324]
mean [20]: 2.464
Replicate_1 [21]: 2.862
Replicate_2 [22]: 2.066

Cn1cnc2c1c(=O)[nH]c(=O)n2C [Theobromine]
inhibition at 5 µM [23]: 3.53%
inhibition at 5 µM [24]: 4.5%
inhibition at 5 µM [25]: 2.55%

CC(N)=NCc1cccc(CN)c1.Cl.Cl [1400W dihydrochloride]
mean [7]: 0.5066
Replicate_1 [8]: 0.5348
Replicate_2 [9]: 0.4785

Cn1ccnc1 [1-Methylimidazole]
inhibition at 5 µM [29]: 4.84%
inhibition at 5 µM [30]: 4.68%
inhibition at 5 µM [31]: 4.99%

Br.CCCN(CCC)C1CCc2ccc(O)cc2C1 (racemic) [(±)-7-Hydroxy-DPAT hydrobromide]
mean (LOPAC_screen_w_protease) [10]: 1.681
Replicate_1 (LOPAC_screen_w_protease) [32]: 3.951
Replicate_2 (LOPAC_screen_w_protease) [33]: -0.5891

O=C1CCC(c2ccc(-n3ccnc3)cc2)=NN1 [Imazodan]
inhibition at 5 µM [11]: -0.683%
inhibition at 5 µM [12]: 0.89%
inhibition at 5 µM [13]: -2.26%

COc1cc(C(O)CN)ccc1O.Cl (racemic) [(±)-Normetanephrine hydrochloride]
mean [1]: 4.101
Replicate_1 [2]: 4.337
Replicate_2 [3]: 3.864

Cl.NCC#Cc1ccccc1 [3-Phenylpropargylamine hydrochloride]
mean [7]: 0.744
Replicate_1 [8]: 1.313
Replicate_2 [9]: 0.1753

CC(N)Cc1c[nH]c2ccc(O)cc12.O=C(O)/C=C\C(=O)O (stereo not drawn) [alpha-Methyl-5-hydroxytryptamine maleate]
mean [1]: 6.214
Replicate_1 [2]: 5.086
Replicate_2 [3]: 7.342

CN1[C@@H]2CC[C@H]1C[C@@H](OC(c1ccccc1)c1ccccc1)C2 [Benztropine mesylate]
inhibition at 5 µM (sheet LOPAC_screen_w_protease, primary screen with protease, compound at 5 µM, mean of two replicates, read-out: mean): 3.08%
inhibition at 5 µM (sheet LOPAC_screen_w_protease, primary screen with protease, compound at 5 µM, replicate 1, read-out: Replicate_1): 0.913%
inhibition at 5 µM (sheet LOPAC_screen_w_protease, primary screen with protease, compound at 5 µM, replicate 2, read-out: Replicate_2): 5.26%

Cl.O=c1[nH]oc2c1CCNC2 [THIP hydrochloride]
mean [26]: -0.005768
Replicate_1 [27]: -0.552
Replicate_2 [28]: 0.5405

CCCN1CCOC2c3cc(O)ccc3OCC21.Cl (racemic) [(±)-PD 128,907 hydrochloride]
mean [4]: 3.436
Replicate_1 [5]: 4.647
Replicate_2 [6]: 2.226

CN(C)CCCN1c2ccccc2Sc2ccccc21 [Promazine hydrochloride]
inhibition at 5 µM [11]: -0.303%
inhibition at 5 µM [12]: -0.0432%
inhibition at 5 µM [13]: -0.563%

CC(C)NCC(O)c1ccc(O)c(O)c1.Cl (single isomer, unassigned; (-)) [(-)-Isoproterenol hydrochloride]
mean (LOPAC_screen_w_protease) [34]: 2.084
Replicate_2 (LOPAC_screen_w_protease) [33]: 1.275

O=C(O)c1cc2cc(F)ccc2[nH]1 [5-Fluoroindole-2-carboxylic acid]
inhibition at 5 µM [11]: -0.381%
inhibition at 5 µM [12]: 0.54%
inhibition at 5 µM [13]: -1.3%

c1ccc(-c2ccccn2)nc1 [2,2'-Bipyridyl]
mean [7]: 0.8479
Replicate_1 [8]: 3.924
Replicate_2 [9]: -2.2286

CC1CCN(CC[C@H]2CCCN2S(=O)(=O)c2cccc(O)c2)CC1.Cl [SB 269970 hydrochloride]
mean (LOPAC_screen_w_protease) [34]: 2.103
Replicate_1 (LOPAC_screen_w_protease) [32]: 1.356
Replicate_2 (LOPAC_screen_w_protease) [33]: 2.851

NC(=O)C(=O)O [Sodium Oxamate]
inhibition at 5 µM [29]: 4.58%
inhibition at 5 µM [30]: 4.67%
inhibition at 5 µM [31]: 4.48%

COc1ccc2c(c1)c(CC(=O)O)c(C)n2Cc1ccc(Cl)cc1
mean [26]: 0.3525
Replicate_1 [27]: -0.9083
Replicate_2 [28]: 1.613

O=C(O)[C@@H]1[C@H](C(=O)O)[C@H]2CC[C@@H]1O2 [Endothall]
inhibition at 5 µM (read-out: Replicate_1): 3.42%
inhibition at 5 µM (read-out: Replicate_2): -0.805%
inhibition at 5 µM (read-out: mean): 1.31%

Nc1c[n+](N2CCOCC2)no1.[Cl-] [3-Morpholinosydnonimine hydrochloride]
mean (LOPAC screen with protease) [17]: 21.789
Replicate_1 (LOPAC screen with protease) [18]: 21.9907
Replicate_2 (LOPAC screen with protease) [19]: 21.5874

CC(C)C(=O)Nc1ccc([N+](=O)[O-])c(C(F)(F)F)c1 [Flutamide]
inhibition at 5 µM [11]: 0.293%
inhibition at 5 µM [12]: 2.71%
inhibition at 5 µM [13]: -2.13%

Reference: paper PMC7587356, “High-Throughput Screening for Inhibitors of the SARS-CoV-2 Protease Using a FRET-Biosensor” (Molecules, 2020)
